Measurements from PubChem BioAssay AID330 (DTP/NCI, 2004).
“And” between values parts separate entries of the source, which are not always exact repeats. Equal values may be shown once. Inconclusive results and toxic doses are left out. Rule for the calls: active = survival T/C of 150% or more; inactive = T/C below 125% in these data.

Test system: P388 leukemia ip, CD2F1 mice, survival T/C
Assay: NCI In Vivo Anticancer Drug Screen. Data for tumor model P388 Leukemia (intraperitoneal) in CD2F1 (CDF1) mice
Conditions: endpoint: median survival time, higher = longer survival
Method in brief: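 Mice carrying the transplanted tumor received test compound or vehicle. Survival was recorded in each group, and the value is the treated-group measurement divided by that of the vehicle-treated control group.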

[1] = dose: 60.0 mg/kg/injection, schedule: Q01DX005 (ip), vehicle: saline with Tween-80
[2] = dose: 120.0 mg/kg/injection, schedule: Q01DX005 (ip), vehicle: saline with Tween-80
[3] = dose: 240.0 mg/kg/injection, schedule: Q01DX005 (ip), vehicle: saline with Tween-80
[4] = dose: 50.0 mg/kg/injection, schedule: Q01DX009 (ip), vehicle: Klucel (hydroxypropylcellulose) (HPC)
[5] = dose: 100.0 mg/kg/injection, schedule: Q01DX009 (ip), vehicle: Klucel (hydroxypropylcellulose) (HPC)
[6] = dose: 50.0 mg/kg/injection, schedule: Q01DX009 (ip), vehicle: saline with Tween-80
[7] = dose: 200.0 mg/kg/injection, schedule: Q01DX009 (ip), vehicle: saline with Tween-80
[8] = dose: 100.0 mg/kg/injection, schedule: Q01DX001 (ip), vehicle: Klucel (hydroxypropylcellulose) (HPC)
[9] = dose: 6.25 mg/kg/injection, schedule: Q01DX005 (ip), vehicle: Klucel (hydroxypropylcellulose) (HPC)
[10] = dose: 12.5 mg/kg/injection, schedule: Q01DX005 (ip), vehicle: Klucel (hydroxypropylcellulose) (HPC)
[11] = dose: 1.56 mg/kg/injection, schedule: Q01DX005 (ip), vehicle: Klucel (hydroxypropylcellulose) (HPC)
[12] = dose: 3.12 mg/kg/injection, schedule: Q01DX005 (ip), vehicle: Klucel (hydroxypropylcellulose) (HPC)

Measured: T/C

CSP(C)(=O)CCC(C)=O (stereo unspecified)
inactive: dose: 25.0 mg/kg/injection, schedule: Q01DX001 (ip), vehicle: saline 100 % of control | dose: 50.0 mg/kg/injection, schedule: Q01DX001 (ip), vehicle: saline 100 % of control | dose: 100.0 mg/kg/injection, schedule: Q01DX001 (ip), vehicle: saline 102 % of control

CCCc1[nH]nc(-c2n[nH]c(CCC)c2CC)c1CC
inactive: [1] 101 % of control | [2] 93 % of control | [3] 110 % of control

CCCCCCC(=O)CC1(C(=O)OC)NC(=S)NC(=O)C1C#N (stereo unspecified)
inactive: dose: 60.0 mg/kg/injection, schedule: Q01DX005 (ip), vehicle: Klucel (hydroxypropylcellulose) (HPC) 100 % of control | dose: 120.0 mg/kg/injection, schedule: Q01DX005 (ip), vehicle: Klucel (hydroxypropylcellulose) (HPC) 103 % of control | dose: 240.0 mg/kg/injection, schedule: Q01DX005 (ip), vehicle: Klucel (hydroxypropylcellulose) (HPC) 97 % of control

C=C(C)C1CC2(C)C(C)CC(O)CC2C(OC(=O)/C=C(/C)CC)C1O (stereo unspecified)
inactive: dose: 12.5 mg/kg/injection, schedule: Q01DX009 (ip), vehicle: Klucel (hydroxypropylcellulose) (HPC) 97 % of control | dose: 25.0 mg/kg/injection, schedule: Q01DX009 (ip), vehicle: Klucel (hydroxypropylcellulose) (HPC) 98 % of control | [4] 97 % of control | [5] 97 % of control

CC(C)CC(=O)Nc1ccc(S(=O)(=O)Cl)cc1
inactive: dose: 100.0 mg/kg/injection, schedule: Q01DX009 (ip), vehicle: saline 100 % of control | dose: 200.0 mg/kg/injection, schedule: Q01DX009 (ip), vehicle: saline 90 % of control | dose: 400.0 mg/kg/injection, schedule: Q01DX009 (ip), vehicle: saline 90 % of control

CCCCCCCCCCCCCCOc1ccc(C(C)=O)o1
inactive: [6] 95 % of control | [7] 100 % of control

O=C1CSc2c(ccc3c4c([nH]c23)C(=O)CCC4)N1
inactive: [8] 99 % of control | dose: 200.0 mg/kg/injection, schedule: Q01DX001 (ip), vehicle: Klucel (hydroxypropylcellulose) (HPC) 90 % of control | dose: 400.0 mg/kg/injection, schedule: Q01DX001 (ip), vehicle: Klucel (hydroxypropylcellulose) (HPC) 97 % of control

Nc1nc(N)nc(N)n1 (tested in a mixture with another compound)
inactive: [6] 98 % of control | dose: 100.0 mg/kg/injection, schedule: Q01DX009 (ip), vehicle: saline with Tween-80 92 % of control | [7] 88 % of control

CC(=O)OC1C2C(OC3OC(=O)/C(=C\C=C4\CCCC(C)(C)C4)C32)O[C@H]1OC(C)=O (stereo partly specified)
inactive: [9] 105 % of control | [10] 113 % of control | dose: 25.0 mg/kg/injection, schedule: Q01DX005 (ip), vehicle: Klucel (hydroxypropylcellulose) (HPC) 86 % of control

Cn1c(N)cc2nc3ccccc3n2c1=O
inactive: [1] 96 % of control | [2] 92 % of control | [3] 89 % of control

COc1cccc2c1C(=O)c1c(O)c3c(c(O)c1C2=O)[C@@H](N=[N+]=[N-])[C@@](O)(C(C)=O)C[C@@H]3OC1CC(N)C(O)C(C)O1 (stereo partly specified)
inactive: dose: 3.13 mg/kg/injection, schedule: Q04DX003 (ip), vehicle: water 102 % of control | dose: 6.25 mg/kg/injection, schedule: Q04DX003 (ip), vehicle: water 111 % of control | dose: 12.5 mg/kg/injection, schedule: Q04DX003 (ip), vehicle: water 117 % of control and 120 % of control | dose: 25.0 mg/kg/injection, schedule: Q04DX003 (ip), vehicle: water 122 % of control | dose: 50.0 mg/kg/injection, schedule: Q04DX003 (ip), vehicle: water 105 % of control and 120 % of control | dose: 100.0 mg/kg/injection, schedule: Q04DX003 (ip), vehicle: water 100 % of control

O=C(NCCNCCO)c1cccc(Nc2cc(O)c(O)c3ccccc23)c1
inactive: dose: 50.0 mg/kg/injection, schedule: Q01DX005 (ip), vehicle: saline with Tween-80 108 % of control | dose: 100.0 mg/kg/injection, schedule: Q01DX005 (ip), vehicle: saline with Tween-80 100 % of control | dose: 200.0 mg/kg/injection, schedule: Q01DX005 (ip), vehicle: saline with Tween-80 97 % of control

CCCCCNc1ncnc2c1ncn2C1OC(CO)C(O)C1O (stereo unspecified)
inactive: dose: 12.5 mg/kg/injection, schedule: Q04DX003 (ip), vehicle: saline 97 % of control | dose: 25.0 mg/kg/injection, schedule: Q04DX003 (ip), vehicle: saline 108 % of control | dose: 50.0 mg/kg/injection, schedule: Q04DX003 (ip), vehicle: saline 102 % of control | dose: 100.0 mg/kg/injection, schedule: Q04DX003 (ip), vehicle: saline 104 % of control

Nc1nc2c(=O)[nH]c(=O)[nH]c2n1C1OC(CO)C(O)C1O (stereo unspecified)
inactive: [1] 117 % of control

NC(Cc1cccc(F)c1)c1nn[nH]n1 (stereo unspecified)
inactive: dose: 50.0 mg/kg/injection, schedule: Q04DX003 (ip), vehicle: saline with Tween-80 100 % of control | dose: 100.0 mg/kg/injection, schedule: Q04DX003 (ip), vehicle: saline with Tween-80 93 % of control

O=C(/C=C\c1ccc([N+](=O)[O-])cc1)c1ccccc(=O)c1O
inactive: dose: 12.5 mg/kg/injection, schedule: Q01DX001 (ip), vehicle: Klucel (hydroxypropylcellulose) (HPC) 95 % of control | dose: 25.0 mg/kg/injection, schedule: Q01DX001 (ip), vehicle: Klucel (hydroxypropylcellulose) (HPC) 100 % of control | dose: 50.0 mg/kg/injection, schedule: Q01DX001 (ip), vehicle: Klucel (hydroxypropylcellulose) (HPC) 99 % of control | [8] 98 % of control

Cc1c2c(cc3c4ccccc4n(C)c13)C(=O)OC2=O
inactive: dose: 0.78 mg/kg/injection, schedule: Q01DX005 (ip), vehicle: Klucel (hydroxypropylcellulose) (HPC) 99 % of control | [11] 93 % of control | [12] 89 % of control | [9] 89 % of control | dose: 50.0 mg/kg/injection, schedule: Q01DX005 (ip), vehicle: Klucel (hydroxypropylcellulose) (HPC) 89 % of control | dose: 100.0 mg/kg/injection, schedule: Q01DX005 (ip), vehicle: Klucel (hydroxypropylcellulose) (HPC) 88 % of control | dose: 200.0 mg/kg/injection, schedule: Q01DX005 (ip), vehicle: Klucel (hydroxypropylcellulose) (HPC) 97 % of control

COc1cccc(Cc2ccncc2)c1OC
inactive: dose: 12.5 mg/kg/injection, schedule: Q01DX009 (ip), vehicle: water 101 % of control | dose: 25.0 mg/kg/injection, schedule: Q01DX009 (ip), vehicle: water 100 % of control | dose: 50.0 mg/kg/injection, schedule: Q01DX009 (ip), vehicle: water 100 % of control | dose: 100.0 mg/kg/injection, schedule: Q01DX009 (ip), vehicle: water 102 % of control | dose: 200.0 mg/kg/injection, schedule: Q01DX009 (ip), vehicle: water 103 % of control

Nc1nc(N)c2cc(N3CCCC3c3ccc(Cl)cc3)ccc2n1 (stereo unspecified)
inactive: [11] 98 % of control | dose: 1.56 mg/kg/injection, schedule: Q01DX009 (ip), vehicle: Klucel (hydroxypropylcellulose) (HPC) 100 % of control and 101 % of control | [12] 98 % of control | dose: 3.12 mg/kg/injection, schedule: Q01DX009 (ip), vehicle: Klucel (hydroxypropylcellulose) (HPC) 101 % of control and 118 % of control | [9] 96 % of control | [10] 108 % of control

Nc1nc(-c2cc3cc(Cl)ccc3o2)cs1
inactive: [4] 101 % of control | [5] 101 % of control | dose: 200.0 mg/kg/injection, schedule: Q01DX009 (ip), vehicle: Klucel (hydroxypropylcellulose) (HPC) 100 % of control
